Source: patent US10023602B2, “Hamamelitannin analogues and uses thereof” (Universiteit Gent, priority 2014, dated 2018)

What was measured:
[1] = system: methicillin resistant S. aureus Mu50 strain (S. aureus ATCC700699) biofilm; test: Biofilm susceptibility to vancomycin, pre-treatment regimen (biofilm formed in presence of compound, then vancomycin); assay type: cell-based; details: for Pretreat (100 μM): percentage Colony Forming Units (CFU's) per biofilm: compound 100 μM during biofilm formation; for EC50: concentration needed to get 50% killing compared to antibiotic alone (VAN 20 μg/ml) and complete killing, read-out: Pretreat. (EC50)
Method: (§1) The compounds were evaluated for their effect on biofilm susceptibility both under pre-treatment and combination treatment regimens. In the pre-treatment regimen, a methicillin resistant S. aureus Mu50 strain (S. aureus ATCC700699) was allowed to form biofilms in the presence of the compounds after which the biofilm was treated with vancomycin (20 μg/ml). In the combination treatment regimen, S. aureus Mu50 was allowed to form a mature biofilm after which it was treated with a combination of a compound and vancomycin. In brief, 100 μl of a standardized inoculum (10^8 CFU/ml) was placed in the wells of a round-bottom 96-well microtiter plate. The cells were allowed to adhere to the plate in the absence (combined treatment) or presence (pre-treatment) of the compounds (0.1-250 μM) for 4 h at 37° C. After this adhesion step, non-adhered cells were removed, the wells were rinsed and fresh medium with or without the compounds was added. The plates were incubated for an additional 20 h at 37° C. After this, the medium was removed, biofilms were rinsed with physiological saline and vancomycin (20 μg/ml) was added alone (pre-treatment) or with the compounds (combined treatment, 0.1-250 μM). Plates were placed at 37° C. for 24 h after which medium was removed, wells were rinsed and the surviving cells in each condition were collected. The number of surviving cells under each condition was compared to vancomycin treatment alone and was assessed by conventional plating. The REF compound (hamamelitannin) was also observed for its effect on biofilm susceptibility towards other antibiotics (incl. vancomycin, cefoxitin, tobramycin, cefazolin, cefalonium, daptomycin, linezolide and cephalexin). Biofilms were formed as described above and were treated with the antibiotics alone or in combination with the REF compound (250 μM). The number of surviving cells under each condition was compared to the untreated control biofilm and was assessed by conventional plating.

[2] = system: methicillin resistant S. aureus Mu50 strain (S. aureus ATCC700699) biofilm; test: Biofilm susceptibility to vancomycin, combination treatment regimen (mature biofilm treated with compound plus vancomycin); assay type: cell-based; details: for Combin. (100 μM): percentage Colony Forming Units (CFU's) per biofilm: compound 100 μM together with VAN 20 μg/ml on mature biofilm; for EC50: concentration needed to get 50% killing compared to antibiotic alone (VAN 20 μg/ml) and complete killing, read-out: Combin. (EC50)
Method: as §1

[3] = then VAN 20 μg/ml, compared to the untreated (negative) control
[4] = compared to the untreated (negative) control

Structure (SMILES) | Pretreat (100 μM): percentage Colony Forming Units (CFU's) per biofilm [1, 3] | EC50 [1] | Combin. (100 μM): percentage Colony Forming Units (CFU's) per biofilm [2, 4] | EC50 [2] | Pretreat. (25 μM): percentage Colony Forming Units (CFU's) per biofilm ([1]; compound 25 μM during biofilm formation, then VAN 20 μg/ml, compared to the untreated (negative) control) | Combin. (25 μM): percentage Colony Forming Units (CFU's) per biofilm ([2]; compound 25 μM together with VAN 20 μg/ml on mature biofilm, compared to the untreated (negative) control)
O=C(NC[C@]1(O)CO[C@H](CNCc2ccccc2)[C@H]1O)c1ccccc1 [compound 228, N-(((3S,4R,5R)-5-((benzylamino)methyl)-3,4-dihydroxytetrahydrofuran-3-yl)methyl)benzamide] | 18.68 percentage | 41.2 µM | 22.13 percentage | 45.2 µM | – | –
O=C(NC[C@H]1OC(O)[C@@](O)(CNC(=O)c2ccccc2)[C@@H]1O)c1ccccc1 (stereo partly drawn) [compound 21, N,N′-(((2R,3R,4R)-3,4,5-trihydroxytetrahydrofuran-2,4-diyl)bis(methylene))dibenzamide] | 18.04 percentage | 73.6 µM | 56.02 percentage | 154 µM | – | –
O=C(NC[C@]1(O)CO[C@H](CNC(=O)c2ccccc2Cl)[C@H]1O)c1cccc(F)c1 [compound 240, 2-chloro-N-(((2R,3R,4S)-4-((3-fluorobenzamido)methyl)-3,4-dihydroxytetrahydrofuran-2-yl)methyl)benzamide] | – | – | – | – | 118.37 percentage | 91.32 percentage
O=C(NC[C@H]1OC[C@@](O)(CNC(=O)c2ccccc2)[C@@H]1O)c1ccc(F)c(F)c1 [compound 181, N-(((2R,3R,4S)-4-(benzamidomethyl)-3,4-dihydroxytetrahydrofuran-2-yl)methyl)-3,4-difluorobenzamide] | 67.74 percentage | – | 59.09 percentage | – | – | –
O=C(NC[C@]1(O)CO[C@H](CNC(=O)c2ccncc2Cl)[C@H]1O)c1ccccc1 [compound 200, N-(((2R,3R,4S)-4-(benzamidomethyl)-3,4-dihydroxytetrahydrofuran-2-yl)methyl)-3-chloroisonicotinamide] | 58.59 percentage | > 250 µM | 48.93 percentage | 232 µM | – | –
O=C(NC[C@H]1OC[C@@](O)(CNC(=O)c2ccccc2)[C@@H]1O)c1ccc(C(F)(F)F)cc1 [compound 157, N-(((2R,3R,4S)-4-(benzamidomethyl)-3,4-dihydroxytetrahydrofuran-2-yl)methyl)-4-(trifluoromethyl)benzamide] | 15.95 percentage | – | 11.25 percentage | – | – | –
COc1ccc(C(=O)NC[C@H]2OC[C@@](O)(CNC(=O)c3ccccc3)[C@@H]2O)cc1OC [compound 183, N-(((2R,3R,4S)-4-(benzamidomethyl)-3,4-dihydroxytetrahydrofuran-2-yl)methyl)-3,4-dimethoxybenzamide] | 60.04 percentage | – | 61.60 percentage | – | – | –
O=C(NC[C@]1(O)CO[C@H](Cn2nncc2-c2ccccc2)[C@H]1O)c1ccccc1 [compound 222, N-(((3S,4R,5R)-3,4-dihydroxy-5-((5-phenyl-1H-1,2,3-triazol-1-yl)methyl)tetrahydrofuran-3-yl)methyl)benzamide] | 47.10 percentage | – | 73.90 percentage | – | – | –
O=C(NC[C@H]1OC[C@@](O)(CNC(=O)c2ccccc2)[C@@H]1O)c1ccc(Cl)cc1 [compound 153, N-(((2R,3R,4S)-4-(benzamidomethyl)-3,4-dihydroxytetrahydrofuran-2-yl)methyl)-4-chlorobenzamide] | 9.185 percentage | 18 µM | 8.577 percentage | 21.4 µM | – | –
